We go through 4 molecules from ChEMBL document CHEMBL1143727, “Terpenoids from the medicinal plant Maytenus ilicifolia” (J Nat Prod, 2007).

Active and inactive are the calls of the source. No cut-off for these calls is given here.

This experiment concerns Saccharomyces cerevisiae. Kind of experiment: Antimicrobial activity against DNA damage check point deffective Saccharomyces cerevisiae mutants. The experiment is classed as functional, organism-based.
Turning to `C=C(C)C1CCC(C)[C@@]23CC=C(C)[C@]2(C1)Oc1c(cc2c(c1C)C=CC1[C@@]2(C)CC[C@@]2(C)C4C[C@@H](C)C(=O)C[C@]4(C)CC[C@]12C)O3` (some centres undefined), the outcome was inactive.
As for `C=C(C)C1CCC(C)[C@@]23CC=C(C)[C@]2(C1)Oc1cc2c(c(C)c1O3)C(=O)C=C1[C@@]2(C)CC[C@@]2(C)C3C[C@@H](C)C(=O)C[C@]3(C)CC[C@]12C` (some centres undefined), the entry is “inactive”; as for `COC(=O)[C@]1(C)CC[C@](C)(CC[C@]2(C)C(/C=C\c3ccc4c(c3C)O[C@]3(O)C(=O)C=C5C(=CC=C6[C@@]5(C)CC[C@@]5(C)C7C[C@@H](C)C(=O)C[C@]7(C)CC[C@]65C)[C@]3(C)O4)[C@@H](C)CC[C@@H]2C)CC1` (some centres undefined), “inactive”.
The value for `COc1cc(C(=O)Oc2c(O)cc3c(c2C)C(O)CC2[C@@]3(C)CC[C@@]3(C)C4C[C@@H](C)C(=O)C[C@]4(C)CC[C@]23C)ccc1O` (some centres undefined) was “inactive”.
